# Data taken from PubChem BioAssay (NCI).
# “And” between values parts separate entries of the source, which are not always exact repeats. Equal entries are not always repeated.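 These data come from cells grown in 96-well plates and exposed to compound for 48 hours at five concentrations. GI50 marks 50% less growth. TGI marks complete inhibition of growth.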
# Assays:
# Assay in all cases: DTP human tumour cell line panel, 48 h
# SF-295 CNS = tested on: SF-295 CNS
# SW-620 colon = tested on: SW-620 colon
# K-562 leukemia = tested on: K-562 leukemia
# MDA-MB-435 = tested on: MDA-MB-435
# MDA-MB-231 breast = tested on: MDA-MB-231 breast
# HCT-15 colon = tested on: HCT-15 colon
# ACHN renal = tested on: ACHN renal
# SN12C renal = tested on: SN12C renal
# SK-MEL-2 melanoma = tested on: SK-MEL-2 melanoma
# UACC-62 melanoma = tested on: UACC-62 melanoma
SMILES,GI50 (SF-295 CNS),TGI (SF-295 CNS) [µM],GI50 (SW-620 colon) [µM],TGI (SW-620 colon),GI50 (K-562 leukemia) [µM],TGI (K-562 leukemia),GI50 (MDA-MB-435) [µM],TGI (MDA-MB-435) [µM],GI50 (MDA-MB-231 breast) [µM],TGI (MDA-MB-231 breast) [µM],GI50 (HCT-15 colon),TGI (HCT-15 colon),GI50 (ACHN renal),TGI (ACHN renal),GI50 (SN12C renal) [µM],TGI (SN12C renal),GI50 (SK-MEL-2 melanoma) [µM],TGI (SK-MEL-2 melanoma) [µM],GI50 (UACC-62 melanoma),TGI (UACC-62 melanoma)
CC[C@H](C)[C@H]1O[C@]2(C=C[C@@H]1C)C[C@@H]1C[C@@H](C/C=C(\C)[C@@H](O[C@H]3C[C@H](OC)[C@@H](O[C@H]4C[C@H](OC)[C@@H](NC)[C@H](C)O4)[C@H](C)O3)[C@@H](C)/C=C/C=C3\CO[C@@H]4[C@H](O)C(C)=C[C@@H](C(=O)O1)[C@]34O)O2,2.6 µM,8.17,2.14,4.74 µM,1.97,4.22 µM,1.79,3.62,2,4.4,1.78 µM,4.46 µM,2.73 µM,10.8 µM,3.04,11.3 µM,2.54,7.07,1.99 µM,4.28 µM
C/C(=N\Nc1ccc(Cl)cn1)c1ccccn1,0.262 µM,5.18,0.0622,> 100 µM,0.029,> 100 µM,0.382,> 100,0.0652,> 100,0.0658 µM,> 50.4 µM,0.042 µM,27.1 µM,0.134,> 100 µM,0.72,> 100,0.172 µM,> 100 µM
CON(C)C(=O)N1N=C(c2cc(F)ccc2F)SC1(CCCN)c1ccccc1 (stereo not given),0.0191 µM and < 0.01 µM,1.1,< 0.01,15.6 µM and 16 µM,< 0.01,15.1 µM and 14.3 µM,< 0.01,< 0.01,< 0.01,0.039,0.0485 µM and < 0.01 µM,15.9 µM and 17.6 µM,7.79 µM and 4.91 µM,22.5 µM and 21.8 µM,< 0.01,16 µM and 16.1 µM,< 0.01,0.561,0.0618 µM and < 0.01 µM,18.8 µM and 16.2 µM
COc1cc(NS(=O)(=O)c2ccc(-c3cnc(C4CC4)o3)cc2)ccc1F,0.205 µM,1.46,0.287,> 61.3 µM,0.082,> 100 µM,0.0498,0.634,1.36,19.5,0.198 µM,17.1 µM,0.594 µM,46 µM,0.546,18.1 µM,0.706,23.6,0.313 µM,13.8 µM
C=C1C(=O)O[C@H]2[C@H]1CC/C(COC(=O)c1cc3ccccc3s1)=C\CC[C@@]1(C)O[C@@H]21,3.33 µM,12.8,0.518,2.97 µM,0.813,30.5 µM,1.33,2.89,1.97,4.35,0.4 µM,1.79 µM,1.5 µM,2.93 µM,2.06,4.61 µM,1.75,3.52,1.85 µM,3.79 µM
COc1ccc(OC)c(C(=O)c2oc3ccc(Br)cc3c2N)c1,0.286 µM,2.61,0.332,> 66.8 µM,0.082,35.2 µM,0.0466,0.253,0.847,26.7,0.214 µM,14.2 µM,0.627 µM,> 65.1 µM,0.648,29.3 µM,0.357,4.34,0.432 µM,14.3 µM
COc1ccccc1Cn1cc2c(c1-c1ccccc1)CCc1cnoc1-2,1.09 µM,9.52,1.83,> 100 µM,0.539,> 100 µM,0.279,1.44,3.96,> 100,1.71 µM,> 100 µM,5.27 µM,> 100 µM,6.61,> 100 µM,1.83,9.97,2.34 µM,> 100 µM
COc1cc2c3c(n(CCCCOC(=O)C(Cl)(Cl)Cl)c(=O)c2cc1OC)-c1cc2c(cc1C3=O)OCO2,8.71 µM,> 100,85.5,> 100 µM,> 100,> 100 µM,> 100,> 100,50.3,> 100,> 100 µM,> 100 µM,14.2 µM,59.5 µM,43.7,> 100 µM,> 100,> 100,22.5 µM,> 100 µM
CNc1nc(N)c(N=O)c(Nc2ccc(Br)cc2)n1,–,> 100,–,> 100 µM,–,> 100 µM,–,> 100,–,> 100,–,> 100 µM,–,> 100 µM,–,> 100 µM,–,> 100,–,> 100 µM
C=C(C)C1CCC2(C(=O)O)CCC3(C)C(CCC4C5(C)CCC(OC(=O)NCc6ccccc6)C(C)(C)C5CCC43C)C12 (stereo not given),3.15 µM,> 100,2.56,> 100 µM,1.67,> 100 µM,5.33,> 100,5.69,54.3,3.74 µM,> 100 µM,3.29 µM,> 100 µM,7.11,> 100 µM,5.46,> 100,1.9 µM,> 100 µM
CCN(CC)CCCC(C)Nc1cnc(C(=O)Nc2cccc3ccc(OC)nc23)cn1 (stereo not given),15 µM,29.9,1.78,3.43 µM,1.8,6.2 µM,1.77,3.24,1.73,3.45,1.95 µM,4.31 µM,1.83 µM,3.48 µM,1.77,3.72 µM,1.85,3.68,1.79 µM,3.21 µM
O=c1[nH]c(=O)n(C2OC(CO)C(O)C(O)C2O)cc1F (stereo not given),–,> 100,–,> 100 µM,–,> 100 µM,–,> 100,–,> 100,–,> 100 µM,–,> 100 µM,–,> 100 µM,–,> 100,–,> 100 µM
COc1ccc(-n2cc(-c3cc(OC)c(OC)c(OC)c3)[nH]c2=O)cc1Cl,48.9 µM,> 100,> 100,> 100 µM,> 100,> 100 µM,> 100,> 100,34.9,> 100,> 100 µM,> 100 µM,> 100 µM,> 100 µM,> 100,> 100 µM,> 100,> 100,51.1 µM,> 100 µM
C=C1CC[C@@H]2[C@](C)(COC(C)=O)[C@H](OC(C)=O)CC[C@@]2(C)[C@@H]1CC(Nc1ccc(S(=O)(=O)Nc2ncccn2)cc1)C1=CCOC1=O (stereo not given in full),6.07 µM,18.7,0.864,2.25 µM,1.73,11.7 µM,1.58,3.77,1.95,3.93,1.21 µM,3.33 µM,1.72 µM,3.27 µM,0.43,1.96 µM,2.36,7.2,1.11 µM,2.56 µM
CC(C)CCCC(=O)CCCCCCC(=O)CCN(O)C(=O)C(N)CO (stereo not given),–,36.3,–,> 100 µM,–,> 100 µM,–,83.6,–,34.7,–,42.6 µM,–,34.9 µM,–,43 µM,–,39.5,–,34.6 µM
Nc1nc(-c2cccc(Cl)c2)c(-c2ccc3ncccc3n2)s1,> 25 µM,> 25,> 25,> 25 µM,> 25,> 25 µM,> 25,> 25,> 25,> 25,> 25 µM,> 25 µM,> 25 µM,> 25 µM,> 25,> 25 µM,> 25,> 25,> 25 µM,> 25 µM
COc1ccc(C2SCC(=O)N2NC(=O)Nc2c(C)nc3ccccn23)cc1 (stereo not given),24.5 µM,57.3,> 100,> 100 µM,> 100,> 100 µM,> 100,> 100,15.8,34.7,> 100 µM,> 100 µM,21.9 µM,47.3 µM,54.4,> 100 µM,41.8,> 100,39.6 µM,> 100 µM
COc1ccc(-c2nnc(COc3ccc(NC(=O)Nc4ccc(Cl)c(C(F)(F)F)c4)cc3F)o2)cc1,2.48 µM,9.06,3.42,27.2 µM,3.31,53.9 µM,3.8,36.9,1.91,8.72,2.74 µM,33 µM,2.55 µM,10.7 µM,3.8,56 µM,3.61,9.87,3.12 µM,16.4 µM
CCc1oc2ccccc2c1C(=O)c1cc(I)c(O)c(I)c1,2.05 µM,7.65,2.39,12.6 µM,0.726,18.8 µM,0.327,1.4,5.64,20.8,2.26 µM,14.1 µM,4.87 µM,18.2 µM,4.18,17.8 µM,7.42,28,3.32 µM,16.8 µM
CCC(=O)c1c(C(F)(F)F)n([O-])c2ccc(C)cc2[n+]1=O,3.93 µM,15.8,11.7,> 50 µM,3.4,> 50 µM,9.53,40.8,12.1,37.9,3.05 µM,> 50 µM,5.02 µM,14.2 µM,7.39,19.8 µM,8.35,> 50,7.7 µM,28.9 µM
CCCCN1CSC(=S)N(Cc2ccccc2)C1,–,> 100,–,> 100 µM,–,> 100 µM,–,> 100,–,> 100,–,> 100 µM,–,> 100 µM,–,> 100 µM,–,> 100,–,> 100 µM
CC1(C)N=C(N)N=C(N)N1c1ccc(OCc2ccc(S(=O)(=O)F)c(Cl)c2)c(Cl)c1,3.88 µM,> 100,0.424,> 100 µM,0.448,> 100 µM,0.558,> 100,> 100,> 100,0.586 µM,> 100 µM,5.48 µM,> 100 µM,0.558,> 100 µM,> 100,> 100,0.74 µM,> 100 µM
Cn1cnc([N+](=O)[O-])c1[Se]c1nc(N)nc2c1ncn2C1OC(CO)C(O)C1O (stereo not given),–,> 100,–,> 100 µM,–,> 100 µM,–,> 100,–,> 100,–,> 100 µM,–,> 100 µM,–,> 100 µM,–,> 100,–,> 100 µM
O=C1/C(=C/c2ccc(O)cc2)CSc2ccc(Cl)cc21,18.2 µM,40.1,1.99,4.04 µM,2.36,> 100 µM,4.54,25.3,17.8,44.3,8.31 µM,21.9 µM,11.9 µM,24.3 µM,14,46.9 µM,19.1,51.8,12.2 µM,26.2 µM
Cc1nc(-c2ccccc2)c(-c2ccccc2)s1,–,> 100,–,39.6 µM,–,57.2 µM,–,69.1,–,69.6,–,39 µM,–,97.9 µM,–,> 100 µM,–,32.8,–,56.8 µM
COc1cc2c(c(OC)c1OC)-c1c(cc3c(c1OC)OCO3)C1OC2C(C)C1C (stereo not given) (tested in a mixture with another compound),–,> 100,–,> 100 µM,–,> 100 µM,–,> 100,–,> 100,–,> 100 µM,–,> 100 µM,–,> 100 µM,–,> 100,–,> 100 µM
CSc1nc2cc(S(=O)(=O)N3CCCCC3)ccc2s1,–,> 100,–,> 100 µM,–,> 100 µM,–,> 100,–,> 100,–,> 100 µM,–,> 100 µM,–,> 100 µM,–,> 100,–,> 100 µM
